Laboratory results as given in the NIST ThermoML archive (doi:10.1021/acs.jced.8b00591).
Numbers after ± are expanded uncertainties.

Columns and labels:
[1] = 101.3 kPa, Liquid; for viscosity: Falling or rolling sphere viscometry; for mass density: Vibrating tube method
[2] = xn = mol fraction of the nth substance listed; conditions: 101.3 kPa, Liquid, x2 = 0; for viscosity: Falling or rolling sphere viscometry; for mass density: Vibrating tube method

Structure (SMILES) | viscosity ([1]; 288.15 K) | mass density ([1]; 288.15 K) | viscosity ([1]; 293.15 K) | mass density ([1]; 293.15 K) | viscosity ([1]; 298.15 K) | mass density ([1]; 298.15 K) | viscosity ([1]; 303.15 K) | mass density ([1]; 303.15 K) | viscosity ([1]; 308.15 K) | mass density ([1]; 308.15 K) | viscosity ([1]; 313.15 K) | mass density ([1]; 313.15 K) | viscosity ([1]; 318.15 K) | mass density ([1]; 318.15 K) | viscosity ([1]; 323.15 K) | mass density ([1]; 323.15 K) | viscosity ([1]; 328.15 K) | mass density ([1]; 328.15 K) | viscosity ([2]; 288.15 K) | mass density ([2]; 288.15 K) | also measured
CCCC[n+]1ccn(C)c1.O=S(=O)([N-]S(=O)(=O)C(F)(F)F)C(F)(F)F | 78.02 ± 2 mPa·s | 1445.66 ± 3.5 kg/m3 | 61.32 ± 1.4 mPa·s | 1440.84 ± 3.5 kg/m3 | 48.93 ± 1.1 mPa·s | 1436.01 ± 3.5 kg/m3 | 39.84 ± 0.88 mPa·s | 1431.21 ± 3.5 kg/m3 | 32.91 ± 0.73 mPa·s | 1426.43 ± 3.5 kg/m3 | 27.56 ± 0.61 mPa·s | 1421.66 ± 3.5 kg/m3 | 23.33 ± 0.51 mPa·s | 1416.91 ± 3.4 kg/m3 | 19.97 ± 0.44 mPa·s | 1412.17 ± 3.4 kg/m3 | 17.41 ± 0.38 mPa·s | 1407.45 ± 3.4 kg/m3 |  |  | 
CCOC(=O)OCC [diethyl carbonate] + CCCC[n+]1ccn(C)c1.O=S(=O)([N-]S(=O)(=O)C(F)(F)F)C(F)(F)F |  |  |  |  |  |  |  |  |  |  |  |  |  |  |  |  |  |  | 0.871 ± 0.019 mPa·s | 980.49 ± 2.4 kg/m3 | viscosity ([2]; 293.15 K): 0.812 ± 0.018 mPa·s; mass density ([2]; 293.15 K): 974.91 ± 2.4 kg/m3; viscosity ([2]; 298.15 K): 0.757 ± 0.017 mPa·s; mass density ([2]; 298.15 K): 969.3 ± 2.3 kg/m3; viscosity ([2]; 303.15 K): 0.708 ± 0.015 mPa·s; mass density ([2]; 303.15 K): 963.66 ± 2.3 kg/m3; viscosity ([2]; 308.15 K): 0.664 ± 0.015 mPa·s; mass density ([2]; 308.15 K): 958 ± 2.3 kg/m3; viscosity ([2]; 313.15 K): 0.625 ± 0.014 mPa·s; mass density ([2]; 313.15 K): 952.32 ± 2.3 kg/m3; viscosity ([2]; 318.15 K): 0.589 ± 0.013 mPa·s; mass density ([2]; 318.15 K): 946.6 ± 2.3 kg/m3; viscosity ([2]; 323.15 K): 0.556 ± 0.012 mPa·s; mass density ([2]; 323.15 K): 940.86 ± 2.3 kg/m3; viscosity ([2]; 328.15 K): 0.525 ± 0.011 mPa·s; mass density ([2]; 328.15 K): 935.08 ± 2.3 kg/m3
COC(=O)OC [dimethyl carbonate] + CCCC[n+]1ccn(C)c1.O=S(=O)([N-]S(=O)(=O)C(F)(F)F)C(F)(F)F |  |  |  |  |  |  |  |  |  |  |  |  |  |  |  |  |  |  | 0.669 ± 0.015 mPa·s | 1076.39 ± 2.6 kg/m3 | viscosity ([2]; 293.15 K): 0.626 ± 0.014 mPa·s; mass density ([2]; 293.15 K): 1069.86 ± 2.6 kg/m3; viscosity ([2]; 298.15 K): 0.587 ± 0.013 mPa·s; mass density ([2]; 298.15 K): 1063.27 ± 2.6 kg/m3; viscosity ([2]; 303.15 K): 0.552 ± 0.012 mPa·s; mass density ([2]; 303.15 K): 1056.65 ± 2.5 kg/m3; viscosity ([2]; 308.15 K): 0.52 ± 0.011 mPa·s; mass density ([2]; 308.15 K): 1050 ± 2.5 kg/m3; viscosity ([2]; 313.15 K): 0.498 ± 0.011 mPa·s; mass density ([2]; 313.15 K): 1043.29 ± 2.5 kg/m3; viscosity ([2]; 318.15 K): 0.472 ± 0.01 mPa·s; mass density ([2]; 318.15 K): 1036.57 ± 2.5 kg/m3; viscosity ([2]; 323.15 K): 0.45 ± 0.01 mPa·s; mass density ([2]; 323.15 K): 1029.83 ± 2.5 kg/m3; viscosity ([2]; 328.15 K): 0.429 ± 0.009 mPa·s; mass density ([2]; 328.15 K): 1023.03 ± 2.5 kg/m3
CCOC(=O)OCC [diethyl carbonate] + CCn1cc[n+](C)c1.O=S(=O)([N-]S(=O)(=O)C(F)(F)F)C(F)(F)F |  |  |  |  |  |  |  |  |  |  |  |  |  |  |  |  |  |  | 0.871 ± 0.019 mPa·s | 980.49 ± 2.4 kg/m3 | viscosity ([2]; 293.15 K): 0.812 ± 0.018 mPa·s; mass density ([2]; 293.15 K): 974.91 ± 2.4 kg/m3; viscosity ([2]; 298.15 K): 0.757 ± 0.017 mPa·s; mass density ([2]; 298.15 K): 969.3 ± 2.3 kg/m3; viscosity ([2]; 303.15 K): 0.708 ± 0.015 mPa·s; mass density ([2]; 303.15 K): 963.66 ± 2.3 kg/m3; viscosity ([2]; 308.15 K): 0.664 ± 0.015 mPa·s; mass density ([2]; 308.15 K): 958 ± 2.3 kg/m3; viscosity ([2]; 313.15 K): 0.625 ± 0.014 mPa·s; mass density ([2]; 313.15 K): 952.32 ± 2.3 kg/m3; viscosity ([2]; 318.15 K): 0.589 ± 0.013 mPa·s; mass density ([2]; 318.15 K): 946.6 ± 2.3 kg/m3; viscosity ([2]; 323.15 K): 0.556 ± 0.012 mPa·s; mass density ([2]; 323.15 K): 940.86 ± 2.3 kg/m3; viscosity ([2]; 328.15 K): 0.525 ± 0.011 mPa·s; mass density ([2]; 328.15 K): 935.08 ± 2.3 kg/m3
CCOC(=O)OCC [diethyl carbonate] | 0.871 ± 0.019 mPa·s | 980.49 ± 2.4 kg/m3 | 0.812 ± 0.018 mPa·s | 974.91 ± 2.4 kg/m3 | 0.757 ± 0.017 mPa·s | 969.3 ± 2.3 kg/m3 | 0.708 ± 0.015 mPa·s | 963.66 ± 2.3 kg/m3 | 0.664 ± 0.015 mPa·s | 958 ± 2.3 kg/m3 | 0.625 ± 0.014 mPa·s | 952.32 ± 2.3 kg/m3 | 0.589 ± 0.013 mPa·s | 946.6 ± 2.3 kg/m3 | 0.556 ± 0.012 mPa·s | 940.86 ± 2.3 kg/m3 | 0.525 ± 0.011 mPa·s | 935.08 ± 2.3 kg/m3 |  |  | 
COC(=O)OC [dimethyl carbonate] + CCn1cc[n+](C)c1.O=S(=O)([N-]S(=O)(=O)C(F)(F)F)C(F)(F)F |  |  |  |  |  |  |  |  |  |  |  |  |  |  |  |  |  |  | 0.669 ± 0.015 mPa·s | 1076.39 ± 2.6 kg/m3 | viscosity ([2]; 293.15 K): 0.626 ± 0.014 mPa·s; mass density ([2]; 293.15 K): 1069.86 ± 2.6 kg/m3; viscosity ([2]; 298.15 K): 0.587 ± 0.013 mPa·s; mass density ([2]; 298.15 K): 1063.27 ± 2.6 kg/m3; viscosity ([2]; 303.15 K): 0.552 ± 0.012 mPa·s; mass density ([2]; 303.15 K): 1056.65 ± 2.5 kg/m3; viscosity ([2]; 308.15 K): 0.52 ± 0.011 mPa·s; mass density ([2]; 308.15 K): 1050 ± 2.5 kg/m3; viscosity ([2]; 313.15 K): 0.498 ± 0.011 mPa·s; mass density ([2]; 313.15 K): 1043.29 ± 2.5 kg/m3; viscosity ([2]; 318.15 K): 0.472 ± 0.01 mPa·s; mass density ([2]; 318.15 K): 1036.57 ± 2.5 kg/m3; viscosity ([2]; 323.15 K): 0.45 ± 0.01 mPa·s; mass density ([2]; 323.15 K): 1029.83 ± 2.5 kg/m3; viscosity ([2]; 328.15 K): 0.429 ± 0.009 mPa·s; mass density ([2]; 328.15 K): 1023.03 ± 2.5 kg/m3
CCn1cc[n+](C)c1.O=S(=O)([N-]S(=O)(=O)C(F)(F)F)C(F)(F)F | 49.41 ± 1.1 mPa·s | 1528.55 ± 3.7 kg/m3 | 40.36 ± 0.89 mPa·s | 1523.47 ± 3.7 kg/m3 | 33.52 ± 0.74 mPa·s | 1518.39 ± 3.7 kg/m3 | 28.35 ± 0.62 mPa·s | 1513.34 ± 3.7 kg/m3 | 24.15 ± 0.53 mPa·s | 1508.3 ± 3.7 kg/m3 | 20.76 ± 0.46 mPa·s | 1503.28 ± 3.7 kg/m3 | 17.9 ± 0.39 mPa·s | 1498.27 ± 3.6 kg/m3 | 15.93 ± 0.35 mPa·s | 1493.28 ± 3.6 kg/m3 | 14.26 ± 0.31 mPa·s | 1488.31 ± 3.6 kg/m3 |  |  | 
COC(=O)OC [dimethyl carbonate] | 0.669 ± 0.015 mPa·s | 1076.39 ± 2.6 kg/m3 | 0.626 ± 0.014 mPa·s | 1069.86 ± 2.6 kg/m3 | 0.587 ± 0.013 mPa·s | 1063.27 ± 2.6 kg/m3 | 0.552 ± 0.012 mPa·s | 1056.65 ± 2.5 kg/m3 | 0.52 ± 0.011 mPa·s | 1050 ± 2.5 kg/m3 | 0.498 ± 0.011 mPa·s | 1043.29 ± 2.5 kg/m3 | 0.472 ± 0.01 mPa·s | 1036.57 ± 2.5 kg/m3 | 0.45 ± 0.01 mPa·s | 1029.83 ± 2.5 kg/m3 | 0.429 ± 0.009 mPa·s | 1023.03 ± 2.5 kg/m3 |  |  | 
